Measured values: patent US10526291B2, “Potent dual BRD4-kinase inhibitors as cancer therapeutics” (H. Lee Moffitt Cancer Center and Research Institute, Inc., priority 2014, dated 2020)
Where “and” joins values, the source holds several entries; their conditions need not be identical. Identical values can stand only once.

Experiments:
FLT3 = molecular target: T1, FLT3 (Homo sapiens, UniProt P36888); assay: FLT3 IC50 (RB, commercial kinase panel); assay type: biochemical
T1 construct: purchased
T1 sequence (P36888 27-993): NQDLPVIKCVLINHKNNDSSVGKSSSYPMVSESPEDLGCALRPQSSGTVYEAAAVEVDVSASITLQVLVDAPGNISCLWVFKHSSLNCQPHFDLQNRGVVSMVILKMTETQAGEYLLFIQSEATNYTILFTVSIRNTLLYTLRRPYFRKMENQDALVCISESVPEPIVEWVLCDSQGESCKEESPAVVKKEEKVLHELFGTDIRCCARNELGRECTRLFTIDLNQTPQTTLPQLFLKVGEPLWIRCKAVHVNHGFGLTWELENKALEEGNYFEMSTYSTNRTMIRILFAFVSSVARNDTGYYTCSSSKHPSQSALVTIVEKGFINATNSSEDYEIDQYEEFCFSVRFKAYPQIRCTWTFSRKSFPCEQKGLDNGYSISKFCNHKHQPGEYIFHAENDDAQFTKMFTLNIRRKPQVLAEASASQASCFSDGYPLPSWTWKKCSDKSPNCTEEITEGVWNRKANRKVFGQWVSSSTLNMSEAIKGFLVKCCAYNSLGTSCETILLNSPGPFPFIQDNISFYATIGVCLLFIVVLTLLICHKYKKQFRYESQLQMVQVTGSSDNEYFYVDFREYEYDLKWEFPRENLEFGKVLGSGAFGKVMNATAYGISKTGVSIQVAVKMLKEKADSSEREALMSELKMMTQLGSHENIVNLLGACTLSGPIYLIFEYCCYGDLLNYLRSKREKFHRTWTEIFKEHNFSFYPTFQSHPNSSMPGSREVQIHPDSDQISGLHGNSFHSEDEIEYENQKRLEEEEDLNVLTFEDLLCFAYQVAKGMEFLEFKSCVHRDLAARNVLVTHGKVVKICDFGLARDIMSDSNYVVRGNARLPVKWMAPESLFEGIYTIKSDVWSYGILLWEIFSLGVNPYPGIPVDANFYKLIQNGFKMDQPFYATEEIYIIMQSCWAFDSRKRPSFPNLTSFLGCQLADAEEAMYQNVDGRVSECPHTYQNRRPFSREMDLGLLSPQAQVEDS

UKE-1 = UKE-1 cell IC50; assay type: cell-based; settings: UKE1
BRD4-1 = molecular target: T2, BRD4-1 (Homo sapiens, UniProt O60885); assay: BRD4-1 IC50; assay type: binding
T2 construct: BRD4-1; purchased

BRD4 = BRD4 (Homo sapiens, UniProt O60885); assay: Differential Scanning Fluorimetry (DSF), stability of BRD4 upon ligand binding; settings: for ΔTm at 4 µM: 100 μM protein, 4 μM compound and 2% DMSO; for IC50: estimated
Experimental: DSF=Differential Scanning Fluorimetry; provides a measure of the increased stability of BRD4 upon ligand binding The DSF experiment was run at 100 μM protein, 4 μM compound and 2% DMSO.

BRD4-2 = molecular target: T3, BRD4-2 (Homo sapiens, UniProt O60885); assay: BRD4-2 IC50; assay type: binding
T3 construct: BRD4-2; purchased

NCI-H2052 = NCI-H2052 cell IC50; assay type: cell-based; settings: Homo sapiens
SAOS-2 = SAOS-2 cell IC50; assay type: cell-based; settings: Homo sapiens
BRDT-1 = molecular target: T4, BRDT-1 (Homo sapiens, UniProt Q58F21); assay: BRDT-1 IC50; assay type: binding
T4 construct: BRDT-1; purchased

MV4-11 AML cells = assay: MV-4-11 cell IC50 (antiproliferative activity); assay type: cell-based; settings: Homo sapiens
Experimental: Cellular activity of promising compounds is assessed using MM.1S and MV4-11 AML cells using c-Myc levels as biomarker (6-12 hr treatment) and antiproliferative activity (48-72 hr treatment) as described (Ciceri et al., Dual kinase-bromodomain inhibitors for rationally designed polypharmacology. Nat Chem Biol 2014).

MM.1S cells = assay: MM.1S cell survival, MTT assay; assay type: cell-based; settings: Homo sapiens, MM1.S, 72 h, 72 hours compound exposure
JAK2 = molecular target: T5, JAK2 (Homo sapiens, UniProt O60674); assay: JAK2 IC50 (RB, commercial kinase panel); assay type: biochemical
T5 construct: purchased
T5 sequence (O60674 whole entry): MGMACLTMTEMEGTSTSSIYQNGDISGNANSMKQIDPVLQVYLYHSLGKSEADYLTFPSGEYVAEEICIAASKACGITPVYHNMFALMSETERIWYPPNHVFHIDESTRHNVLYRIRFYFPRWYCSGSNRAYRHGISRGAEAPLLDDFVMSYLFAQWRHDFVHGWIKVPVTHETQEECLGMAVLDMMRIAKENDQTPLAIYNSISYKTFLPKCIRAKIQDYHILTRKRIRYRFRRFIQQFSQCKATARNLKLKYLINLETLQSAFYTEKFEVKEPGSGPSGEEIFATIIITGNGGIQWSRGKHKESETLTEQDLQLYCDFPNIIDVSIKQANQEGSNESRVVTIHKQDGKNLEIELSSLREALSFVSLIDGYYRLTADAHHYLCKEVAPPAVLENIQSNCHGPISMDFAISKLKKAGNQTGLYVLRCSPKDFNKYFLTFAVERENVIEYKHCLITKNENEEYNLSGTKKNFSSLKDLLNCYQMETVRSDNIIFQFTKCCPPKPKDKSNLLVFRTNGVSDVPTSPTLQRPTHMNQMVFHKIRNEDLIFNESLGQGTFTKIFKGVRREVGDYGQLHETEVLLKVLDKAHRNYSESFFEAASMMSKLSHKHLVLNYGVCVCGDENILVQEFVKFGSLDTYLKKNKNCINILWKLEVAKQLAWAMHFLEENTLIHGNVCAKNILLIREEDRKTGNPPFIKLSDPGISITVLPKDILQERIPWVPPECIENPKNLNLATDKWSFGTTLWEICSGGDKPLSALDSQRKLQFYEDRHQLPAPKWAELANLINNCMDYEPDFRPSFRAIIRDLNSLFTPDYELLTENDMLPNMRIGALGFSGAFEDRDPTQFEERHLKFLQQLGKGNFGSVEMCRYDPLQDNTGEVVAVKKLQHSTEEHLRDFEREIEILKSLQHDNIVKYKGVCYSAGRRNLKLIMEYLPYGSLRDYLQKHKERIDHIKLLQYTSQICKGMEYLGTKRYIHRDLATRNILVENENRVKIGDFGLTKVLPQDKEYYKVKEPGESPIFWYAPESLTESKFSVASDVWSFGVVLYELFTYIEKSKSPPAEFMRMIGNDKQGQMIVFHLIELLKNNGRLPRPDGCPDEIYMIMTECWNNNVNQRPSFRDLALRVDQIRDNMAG

SMILES	IC50 (FLT3) [nM]	IC50 (UKE-1) [nM]	IC50 (BRD4-1) [nM]	ΔTm at 4 µM (BRD4) [°C]	IC50 (BRD4)	IC50 (BRD4-2) [nM]	IC50 (NCI-H2052) [nM]	IC50 (SAOS-2) [nM]	IC50 (BRDT-1) [nM]	IC50 (MV4-11 AML cells) [nM]	IC50 (MM.1S cells) [nM]	IC50 (JAK2) [nM]
Cc1cnc(Nc2ccc(N3CCN(C)CC3)c(F)c2)nc1Nc1ccc(Cl)c(NS(=O)(=O)C(C)(C)C)c1	10.7	294	11.2	11 ± 0.04	4.8 nM and 1.3 nM	17.5	2500	320	19	53.2	59	–
Cc1cnc(Nc2ccc(N3CCN(C)CC3)c(F)c2)nc1Nc1cccc(NS(=O)(=O)C(C)(C)C)c1	1.1	200	24.3	9.5 ± 0.14	14 nM and 3.9 nM	22	1400	133	41.3	26.8	160	1.14
